Measurements from patent US7112685B2, “Labeled resiniferatoxin derivatives” (Ortho-McNeil Pharmaceutical, Inc., priority 2000, dated 2006).
Like-named read-outs stand apart in the source and are kept apart here.

Target: T1, hVR1 receptors (Homo sapiens, UniProt Q8NER1)
T1 construct: expressed in transfected cells; host or cells: HEK293 cells (membranes)
Test: [3H] RTX Binding Assay (inhibition of [3H] RTX binding to membranes of HEK293 cells transfected with human VR1)
Method: Iodinated RTX derivatives of the present invention were tested for their ability to inhibit the binding of [^3H] RTX to hVR1 receptors in a [^3H] RTX Binding Assay.
HEK293 cells were transfected with human VRI vanilloid receptors, as described in U.S. patent application Ser. No. 09/292700 to Dubin, A., et. al, filed on Apr. 15, 1999 (herein incorporated by reference), and washed with Hank's Balanced Salt Solution, dissociated with cell dissocation buffer (Sigma), and then centrifuged at 1000 x g for 5 min. Cell pellets were homogenized in cold 20 mM HEPES buffer, pH 7.4, containing 5.8 mM NaCl, 320 mM sucrose, 2 mM MgCl2, […] and 5 mM KCl and centrifuged at 1000 x g for 15 min. The resultant supernate was then centrifuged at 40,000 x g for 15 min. The pelleted membranes were kept in an −80° C. freezer.
The assay procedure was modified from that described in Szallasi, A. and Blumberg, P. M., “[^3H] Resiniferatoxin binding by the vanilloid receptor: specific-related differences, effect of temperature and sulfhydryl reagents” (Naunyn-Schmiedeberg's Arch. Pharmacol., 1993, 347, 84-91). Briefly, about 120 μg protein/ml from membranes were incubated with indicated concentrations of [^3H] RTX in 0.5 ml of the HEPES buffer (pH 7.4) containing 0.25 mg/mL fat acid-free bovine serum albumin at 37° C. for 60 min. The reaction mixture was then cooled to 4° C., added 0.1 mg α1-acid glycoprotein to each sample and incubated at 4° C. for 15 min. The samples were centrifuged at 18500 x g for 15 min. The tip of the microcentrifuge tube containing the pellet was cut off. Bound radioactivity was quantified by scintillation counting. Non-specific binding was tested in the presence of 200 nM unlabeled RTX.
Membrane Incubation with [^3H] RTX and lodinated RTX Derivatives
Membranes were incubated with [^3H] RTX (0.4 nM) and varying concentrations of iodinated RTX derivatives at 37° C. for 60 min. […] RTX binding.

T1 sequence (Q8NER1 whole entry): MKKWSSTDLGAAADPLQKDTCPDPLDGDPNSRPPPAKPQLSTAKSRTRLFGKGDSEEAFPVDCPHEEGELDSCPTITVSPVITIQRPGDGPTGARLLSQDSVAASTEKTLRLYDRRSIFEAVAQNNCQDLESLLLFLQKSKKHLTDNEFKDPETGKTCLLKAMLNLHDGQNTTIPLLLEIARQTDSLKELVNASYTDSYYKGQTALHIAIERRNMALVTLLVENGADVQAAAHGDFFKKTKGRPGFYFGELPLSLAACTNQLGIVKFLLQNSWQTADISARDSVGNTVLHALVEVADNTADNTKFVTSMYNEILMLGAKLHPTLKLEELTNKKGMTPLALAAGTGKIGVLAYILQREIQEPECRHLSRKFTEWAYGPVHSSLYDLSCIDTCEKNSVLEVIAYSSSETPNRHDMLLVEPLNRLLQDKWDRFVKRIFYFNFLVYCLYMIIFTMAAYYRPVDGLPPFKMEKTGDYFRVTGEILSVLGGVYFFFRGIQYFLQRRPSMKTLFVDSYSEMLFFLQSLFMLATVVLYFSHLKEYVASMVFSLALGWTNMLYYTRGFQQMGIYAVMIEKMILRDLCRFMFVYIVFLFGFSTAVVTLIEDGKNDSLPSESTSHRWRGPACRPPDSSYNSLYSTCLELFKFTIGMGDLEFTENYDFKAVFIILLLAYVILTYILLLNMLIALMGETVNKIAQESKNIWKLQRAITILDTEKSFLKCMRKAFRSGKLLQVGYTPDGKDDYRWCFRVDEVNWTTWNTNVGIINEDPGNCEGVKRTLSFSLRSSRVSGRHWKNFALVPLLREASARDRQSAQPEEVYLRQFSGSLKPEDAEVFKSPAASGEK

SMILES	IC50 ([3H] RTX 0.4 nM, 37° C. for 60 min, HEK293 membranes, two experiments, each point in duplicate, read-out: IC50 Value for Binding to a hVR1 Receptor) [nM]	IC50 [nM]
C=C(C)[C@]12C[C@@H](C)[C@@]34O[C@](Cc5ccccc5)(O[C@@H]1[C@@H]3C=C(COC(=O)Cc1ccc(O)c(OC)c1)C[C@]1(O)C(=O)C(C)=C[C@@H]41)O2 [RTX, resiniferatoxin]	0.09 ± 0.12	
C=C(C)C12CC(C)C34OC(Cc5ccccc5)(OC1C3C=C(COC(=O)Cc1cc(OC)c(OC(C)=O)cc1I)CC1(O)C(=O)C(C)=CC14)O2 (stereo not drawn) [Compound 1, 9,13,14-Orthophenylacetylresiniferonyl-20-(3-acetoxy-4-methoxy-6-Iodophenylacetate)]		0.31 ± 0.06
C=C(C)C12CC(C)C34OC(Cc5ccccc5)(OC1C3C=C(COC(=O)Cc1cc(OC)c(O)cc1I)CC1(O)C(=O)C(C)=CC14)O2 (stereo not drawn) [Compound 2, 9,13,14-Orthophenylacetylresiniferonyl-20-(3-hydroxy-4-methoxy-6-iodophenylacetate)]		0.22 ± 0.03
